Series [1] deals with Amylin receptor AMY2; CALCR/RAMP2 (Homo sapiens, UniProt P30988+O60895). Put plainly: Agonist activity at human AMY2R complex of CTR/RAMP2 transduced in human HeLa cells by cAMP assay. Type of series: functional, cell-based. As to conditions: hela. (Changes in cAMP serve as a functional read-out for many G protein-coupled receptors.)
The target of series [2] is Amylin receptor AMY1, CALCR/RAMP1 (Homo sapiens, UniProt P30988+O60894). Put plainly: Agonist activity at human AMY1R complex of CTR/RAMP1 transduced in human HeLa cells by cAMP assay. Type of series: functional, cell-based. As to conditions: hela.
Amylin receptor AMY1, CALCR/RAMP1, sequence (O60894 whole entry, one chain of several): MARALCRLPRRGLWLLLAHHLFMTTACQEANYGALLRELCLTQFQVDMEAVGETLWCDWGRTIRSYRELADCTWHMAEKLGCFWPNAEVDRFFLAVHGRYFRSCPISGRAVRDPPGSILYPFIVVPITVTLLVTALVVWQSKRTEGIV
Series [3] concerns the target T1, Amylin receptor AMY3; CALCR/RAMP3 (Homo sapiens, UniProt P30988+O60896).
T1 sequence (P30988 whole entry): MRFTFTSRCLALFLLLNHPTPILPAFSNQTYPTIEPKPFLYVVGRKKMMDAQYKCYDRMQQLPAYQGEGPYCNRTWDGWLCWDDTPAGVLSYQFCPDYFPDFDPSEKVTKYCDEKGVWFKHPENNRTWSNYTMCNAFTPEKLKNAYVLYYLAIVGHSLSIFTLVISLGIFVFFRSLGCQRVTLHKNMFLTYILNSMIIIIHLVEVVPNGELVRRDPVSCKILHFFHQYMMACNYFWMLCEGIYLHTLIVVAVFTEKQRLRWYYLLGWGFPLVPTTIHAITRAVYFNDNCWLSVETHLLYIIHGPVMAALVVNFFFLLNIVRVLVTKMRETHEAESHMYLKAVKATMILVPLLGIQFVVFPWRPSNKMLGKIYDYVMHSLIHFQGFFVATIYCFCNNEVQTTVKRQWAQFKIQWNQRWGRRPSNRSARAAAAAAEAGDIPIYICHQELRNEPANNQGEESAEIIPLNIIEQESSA
T1 sequence (O60896 whole entry): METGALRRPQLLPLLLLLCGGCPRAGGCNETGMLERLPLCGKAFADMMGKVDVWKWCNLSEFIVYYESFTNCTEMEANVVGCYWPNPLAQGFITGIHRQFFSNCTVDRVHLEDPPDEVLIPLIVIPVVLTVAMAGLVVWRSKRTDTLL
Put plainly: Agonist activity at human AMY3R complex of CTR/RAMP3 transduced in human HeLa cells by cAMP assay. It counts as functional, cell-based.

The target in series [4] is T2, Calcitonin receptor (Homo sapiens, UniProt P30988).
T2 sequence (P30988 whole entry): T1 sequence (P30988 whole entry)
Put plainly: Agonist activity at human CTR transduced in human HeLa cells by cAMP assay. It counts as functional, cell-based. The conditions noted are these: hela.

For series [5], the target named is Calcitonin-gene-related peptide receptor, CALCRL/RAMP1 (Homo sapiens, UniProt O60894+Q16602). The experiment in a line: Agonist activity at human CGRPR complex of CRLR/RAMP1 transduced in human HeLa cells by cAMP assay. Type of series: functional, cell-based. The conditions noted are these: hela.
Calcitonin-gene-related peptide receptor, CALCRL/RAMP1, sequence (O60894 whole entry): as the sequence (O60894 whole entry, one chain of several) above
Calcitonin-gene-related peptide receptor, CALCRL/RAMP1, sequence (Q16602 whole entry): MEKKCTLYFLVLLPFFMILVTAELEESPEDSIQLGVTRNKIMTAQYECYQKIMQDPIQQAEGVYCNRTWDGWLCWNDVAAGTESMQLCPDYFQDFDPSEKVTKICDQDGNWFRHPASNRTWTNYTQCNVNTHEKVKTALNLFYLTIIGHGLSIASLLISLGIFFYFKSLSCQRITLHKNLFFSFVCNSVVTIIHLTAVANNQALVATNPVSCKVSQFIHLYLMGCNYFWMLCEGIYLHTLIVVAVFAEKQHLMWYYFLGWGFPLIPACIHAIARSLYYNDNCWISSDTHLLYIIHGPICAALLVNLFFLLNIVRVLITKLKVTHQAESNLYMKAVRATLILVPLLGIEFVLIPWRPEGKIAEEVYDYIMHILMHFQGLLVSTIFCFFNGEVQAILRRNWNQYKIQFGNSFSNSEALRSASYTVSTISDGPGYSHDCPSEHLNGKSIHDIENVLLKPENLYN
Series [6] concerns the target Adrenomedullin receptor, AM2; CALCRL/RAMP3 (Homo sapiens, UniProt Q16602+O60896). Put plainly: Agonist activity at human AM2R complex of CRLR/RAMP3 transduced in human HeLa cells by cAMP assay. Type of series: functional, cell-based.
Series [7] can be described thus: Solubility of compound at pH 6.5 incubated overnight by UPLC analysis. It counts as physicochemical. The conditions noted are these: buffer.
The species named for series [8] is Rattus norvegicus. Put plainly: Selectivity ratio of IC50 for rat CTR expressed in Baby hamster kidney cell membrane to IC50 for rat AMY3R complex of CTR/RAMP3 expressed in Baby hamster kidney cell membrane. Type of series: cell-based.
The nature of series [9]: Stability against amyloid fibril formation at pH 7.5 assessed as compound recovery at 1 uM measured after 45 hrs by ThT assay. It counts as physicochemical. The conditions noted are these: pH 7.5, 45 h.
Series [10] is filed under the species Homo sapiens. Put plainly: Selectivity ratio of EC50 for human CTR expressed in Baby hamster kidney cells to EC50 for human AMY3R complex of CTR/RAMP3 expressed in Baby hamster kidney cells. It counts as cell-based.
The species named for series [11] is Homo sapiens. Put plainly: Selectivity ratio of IC50 for human CTR expressed in Baby hamster kidney cell membrane to IC50 for human AMY3R complex of CTR/RAMP3 expressed in Baby hamster kidney cell membrane. Type of series: cell-based.
The species named for series [12] is Rattus norvegicus. Put plainly: Selectivity ratio of EC50 for rat CTR expressed in Baby hamster kidney cells to EC50 for rat AMY3R complex of CTR/RAMP3 expressed in Baby hamster kidney cells. It counts as cell-based.
Series [13] is described as follows: Solubility of compound at pH 5 incubated overnight by UPLC analysis. It counts as physicochemical. As to conditions: buffer.
Series [14] is described as follows: Solubility of compound at pH 7.5 incubated overnight by UPLC analysis. As to conditions: buffer. It counts as physicochemical.
Series [15] in a line: Solubility of compound at pH 3 incubated overnight by UPLC analysis. It counts as physicochemical. As to conditions: buffer.
Series [16] deals with T2, Calcitonin receptor. Put plainly: Agonist activity at human CTR expressed in Baby hamster kidney cells incubated for 3 hrs followed by medium replacement without compound measured after 30 mins by luciferase reporter assay. It counts as functional, cell-based, Baby hamster kidney cell.
Series [17] has as its target T3, Calcitonin receptor (Rattus norvegicus, UniProt P32214).
T3 sequence (P32214 whole entry): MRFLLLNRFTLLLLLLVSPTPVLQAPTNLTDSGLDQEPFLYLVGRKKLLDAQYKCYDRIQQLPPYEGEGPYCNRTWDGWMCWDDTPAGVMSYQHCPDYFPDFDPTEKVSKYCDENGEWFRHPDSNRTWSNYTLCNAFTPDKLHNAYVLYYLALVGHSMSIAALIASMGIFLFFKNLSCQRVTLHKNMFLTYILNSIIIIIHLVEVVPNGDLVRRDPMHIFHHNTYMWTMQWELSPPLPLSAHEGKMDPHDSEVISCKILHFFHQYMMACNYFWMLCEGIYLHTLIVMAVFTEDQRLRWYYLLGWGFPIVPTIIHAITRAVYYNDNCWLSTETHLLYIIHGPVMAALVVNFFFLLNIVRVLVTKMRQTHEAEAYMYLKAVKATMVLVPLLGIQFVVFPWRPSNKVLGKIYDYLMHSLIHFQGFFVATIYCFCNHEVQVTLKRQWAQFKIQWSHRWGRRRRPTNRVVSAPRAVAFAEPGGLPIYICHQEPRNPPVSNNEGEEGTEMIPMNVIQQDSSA
Put plainly: Displacement of 125I-Calcitonin from rat CTR expressed in Baby hamster kidney cell membrane incubated for 120 mins by SPA method. It counts as cell membranes. (Loss of bound radioactivity is the signal in a displacement assay; it reports binding, not function.)

Series [18] deals with T4, Amylin receptor AMY3; CALCR/RAMP3 (Homo sapiens, UniProt O60896+P30988).
T4 sequence (P30988 whole entry): T1 sequence (P30988 whole entry)
T4 sequence (O60896 whole entry): T1 sequence (O60896 whole entry)
The experiment in a line: Displacement of 125I-rat amylin from human AMY3R complex of CTR/RAMP3 expressed in Baby hamster kidney cell membrane incubated for 120 mins by SPA method. Type of series: cell membranes.

Series [19] relates to Rattus norvegicus. Put plainly: Appetite suppressing activity in rat assessed as reduction in food intake at 30 nmol/kg, sc measured for 24 to 48 hrs relative to control. More on the design: scale not given: the % may be the effect or the level left. Type of series: functional. The conditions noted are these: time 24-48 hrs.
In series [20] the target is T2, Calcitonin receptor. The experiment in a line: Displacement of 125I-Calcitonin from human CTR expressed in Baby hamster kidney cell membrane incubated for 120 mins by SPA method. It counts as cell membranes.
The nature of series [21]: Solubility of compound at pH 6 incubated overnight by UPLC analysis. It counts as physicochemical. As to conditions: buffer.
Series [22] deals with T4, Amylin receptor AMY3; CALCR/RAMP3. Put plainly: Agonist activity at human AMY3R complex of CTR/RAMP3 expressed in Baby hamster kidney cells incubated for 3 hrs followed by medium replacement without compound measured after 30 mins by luciferase reporter assay. Type of series: functional, cell-based, Baby hamster kidney cell.
A short description of series [23]: Solubility of compound at pH 8 incubated overnight by UPLC analysis. It counts as physicochemical. The conditions noted are these: buffer.
Series [24] addresses T5, Amylin receptor AMY3; CALCR/RAMP3 (Rattus norvegicus, UniProt P32214+Q9JJ73).
T5 sequence (P32214 whole entry): T3 sequence (P32214 whole entry)
T5 sequence (Q9JJ73 whole entry): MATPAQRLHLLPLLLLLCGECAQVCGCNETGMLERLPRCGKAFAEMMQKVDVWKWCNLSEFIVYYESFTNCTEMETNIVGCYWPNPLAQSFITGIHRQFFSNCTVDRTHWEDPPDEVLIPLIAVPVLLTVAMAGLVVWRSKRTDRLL
The experiment in a line: Displacement of 125I-rat amylin from rat AMY3R complex of CTR/RAMP3 expressed in Baby hamster kidney cell membrane incubated for 120 mins by SPA method. It counts as cell membranes.

A short description of series [25]: Solubility of compound at pH 4 incubated overnight by UPLC analysis. It counts as physicochemical. As to conditions: buffer.
Series [26] in a line: Stability against amyloid fibril formation at pH 7.5 assessed as lag time at 1 uM measured after 45 hrs by ThT assay. It counts as physicochemical. As to conditions: pH 7.5, 45 h.
Series [27] addresses T5, Amylin receptor AMY3; CALCR/RAMP3. The experiment in a line: Agonist activity at rat AMY3R complex of CTR/RAMP3 expressed in Baby hamster kidney cells incubated for 3 hrs by cAMP assay. It counts as functional, cell-based, Baby hamster kidney cell.
Series [28] has as its target T3, Calcitonin receptor. The experiment in a line: Agonist activity at rat CTR expressed in Baby hamster kidney cells incubated for 3 hrs by cAMP assay. Type of series: functional, cell-based, Baby hamster kidney cell.
In series [29] the test system is Rattus norvegicus. The experiment in a line: Appetite suppressing activity in rat assessed as reduction in food intake at 30 nmol/kg, sc measured upto 24 hrs relative to control. It counts as functional. More on the design: scale not given: the % may be the effect or the level left.
The nature of series [30]: Solubility of compound at pH 7 incubated overnight by UPLC analysis. It counts as physicochemical. The conditions noted are these: buffer.

A value given as a limit tells only on which side of the number the result lay.

As a reminder, the pEC50 is −log10 of the EC50, conventionally taken in molar units. By solubility is commonly meant how much of the substance goes into solution per volume. What is called EC50 is the concentration needed to bring the measured effect to its halfway point. One may read the IC50 as the concentration that inhibits the measured activity by half.

Amylin receptor AMY2; CALCR/RAMP2, sequence (O60895 whole entry, one chain of several): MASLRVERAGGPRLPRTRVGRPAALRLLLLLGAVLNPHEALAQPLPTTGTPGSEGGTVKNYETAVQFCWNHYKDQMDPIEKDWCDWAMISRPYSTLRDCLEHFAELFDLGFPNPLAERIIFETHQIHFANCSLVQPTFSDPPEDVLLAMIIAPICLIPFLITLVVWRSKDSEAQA
Adrenomedullin receptor, AM2; CALCRL/RAMP3, sequence (Q16602 whole entry, one chain of several): as the sequence (Q16602 whole entry) above

Consider CAGRILINTIDE, for which the negative-log EC50 (pEC50) in [1] was 10.37; in series [2] it was 10.73; in series [3], 10.33; on Calcitonin receptor [4] it was 10.64; in [5] it was 6.25; in [6], 6.12.

As to `CC[C@H](C)[C@H](NC(=O)[C@H](C)NC(=O)CNC(=O)[C@H](Cc1ccccc1)NC(=O)[C@H](CC(N)=O)NC(=O)[C@@H]1CCCN1C(=O)[C@H](CO)NC(=O)[C@H](CO)NC(=O)[C@H](Cc1c[nH]cn1)NC(=O)[C@H](CCCNC(=N)N)NC(=O)[C@H](CC(C)C)NC(=O)[C@H](Cc1ccccc1)NC(=O)[C@H](CC(N)=O)NC(=O)[C@H](C)NC(=O)[C@H](CC(C)C)NC(=O)[C@H](CCCNC(=N)N)NC(=O)[C@H](CCC(N)=O)NC(=O)[C@@H](NC(=O)[C@H](C)NC(=O)[C@@H]1CSSC[C@H](NC(=O)[C@@H](N)CCCCN)C(=O)N[C@@H](CC(N)=O)C(=O)N[C@@H]([C@@H](C)O)C(=O)N[C@@H](C)C(=O)N[C@@H]([C@@H](C)O)C(=O)N1)[C@@H](C)O)C(=O)N1CCC[C@H]1C(=O)N[C@@H](CO)C(=O)N[C@@H](CO)C(=O)N[C@H](C(=O)N[C@@H](CC(N)=O)C(=O)N[C@H](C(=O)NCC(=O)N[C@@H](CO)C(=O)N[C@@H](CC(N)=O)C(=O)N[C@H](C(=O)N[C@@H](Cc1ccc(O)cc1)C(N)=O)[C@@H](C)O)C(C)C)[C@@H](C)O`, the solubility in [7], in series [13], in series [14], in series [15], in [21] and in [23] was no less than 200 µM in each case. Moreover, the solubility in series [25] and in series [30] was no less than 200 µM throughout. Further, the Ratio IC50 in the series listed under Rattus norvegicus [8] was 116; in the series filed under Homo sapiens [11] it was 90. Besides, the Drug recovery in [9] came out at 0%. Besides, the Ratio EC50 in the series filed under Homo sapiens [10] was found to be 23; in the series filed under Rattus norvegicus [12], 79. Also, the concentration for a half-maximal effect (EC50) on Calcitonin receptor [16] is 10 nM; in series [22], 0.432 nM; in [27] it was 1.79 nM; at Calcitonin receptor [28] it was 142 nM. Moreover, the 50% inhibitory concentration (IC50) was 350 nM on Calcitonin receptor [17], 1.14 nM in series [18], 102 nM on Calcitonin receptor [20] and 3.01 nM in series [24]. Besides, the Activity with Rattus norvegicus [19] was found to be 1%; in the series on Rattus norvegicus [29], 22%. Also, the Time in series [26] stood at 34 h.

The record behind these values is ChEMBL document CHEMBL5523739, “NN1213 - A Potent, Long-Acting, and Selective Analog of Human Amylin” (J Med Chem, 2024).
